Data as given in article PMC9794833, “Ligand recognition and activation of neuromedin U receptor 2” (Nature Communications, 2022).
“And” between values parts separate entries of the source, which are not always exact repeats. Equal entries are not always repeated. Where two headings read alike, the source gives them in different places. Where no end group is shown, it is not given here.

Tests used:
Type in all cases: cell-based
[1] = target: T1, NMU2 E102A (Homo sapiens, UniProt Q9GZQ4, E102A); test: TRUPATH assay, NMU2 mutant E102A
T1 construct: HA signal peptide (N); expressed in transfected cells; host or cells: HEK 293F
Method: (§1) The plasmids of Gαi1, Gβ3, and Gγ9 used for the TRUPATH assay were purchased from Addgene (TRUPATH Kit, #1000000163). NMU2 constructs of WT and mutants were constructed into a PTT5 vector (Invitrogen) with an N-terminal HA signal peptide followed by a Flag tag. HEK 293F cells were transiently transfected with WT or mutants of NMU2, Gαi1, Gβ3, and Gγ9 at an […] ratio of 4:1:1:1 with a total of 3500 ng plasmid DNA using a transfection reagent (PEI MAX 2000, Polysciences) and cultivated at 37 °C with 5 % CO2. Cells were collected after 48-h transfection. The expression level of the receptor was measured by incubating 10 μl cells with 15 μl TBS buffer supplemented with 4% bovine serum albumin, 20% (v/v) viability staining solution7-AAD (Invitrogen, Cat#00-6993-50), and ANTI-FLAG M2-FITC antibody (Sigma, F4049; 1:100 diluted by TBS) at 4 °C for 20 min. After incubation, 175 μl TBS buffer was added, and the fluorescence signal on the cell surface was detected by an FCM (flow cytometry) reader (Millipore). […] After a 5 min equilibration time in the darkness, plates were then read in a Synerg^TM H1 microplate reader (BioTek) with excitation at 395 nm and emission at 410 and 515 nm by serially three times. Then, 30 μl of 3.3× agonists were added into the wells with a gradient final concentration from 10^−4–10^−13 M. Plates were read immediately again by serially five times. […]

[2] = target: T2, NMU2 N109A (Homo sapiens, UniProt Q9GZQ4, N109A); test: TRUPATH assay, NMU2 mutant N109A
T2 construct: HA signal peptide (N); expressed in transfected cells; host or cells: HEK 293F
Method: (§2) The plasmids of Gαi1, Gβ3, and Gγ9 used for the TRUPATH assay were purchased from Addgene (TRUPATH Kit, #1000000163). NMU2 constructs of WT and mutants were constructed into a PTT5 vector (Invitrogen) with an N-terminal HA signal peptide followed by a Flag tag. HEK 293F cells were transiently transfected with WT or mutants of NMU2, Gαi1, Gβ3, and Gγ9 at an […] ratio of 4:1:1:1 with a total of 3500 ng plasmid DNA using a transfection reagent (PEI MAX 2000, Polysciences) and cultivated at 37 °C with 5 % CO2. Cells were collected after 48-h transfection. The expression level of the receptor was measured by incubating 10 μl cells with 15 μl TBS buffer supplemented with 4% bovine serum albumin, 20% (v/v) viability staining solution7-AAD (Invitrogen, Cat#00-6993-50), and ANTI-FLAG M2-FITC antibody (Sigma, F4049; 1:100 diluted by TBS) at 4 °C for 20 min. After incubation, 175 μl TBS buffer was added, and the fluorescence signal on the cell surface was detected by an FCM (flow cytometry) reader (Millipore). The cells were diluted with 1× HBSS (Hank’s balanced salt solution) balanced buffer supplemented with 25 mM HEPES, pH 7.4, and seeded onto the 96-well opaque cell culture plates (Beyotime) at a density of 18,000 cells per well by 60 μl. Freshly prepared 50 μM coelenterazine 400a (Nanolight Technologies) was added into the well by 10 μl. After a 5 min equilibration time in the darkness, plates were then read in a Synerg^TM H1 microplate reader (BioTek) with excitation at 395 nm and emission at 410 and 515 nm by serially three times. Then, 30 μl of 3.3× agonists were added into the wells with a gradient final concentration from 10^−4–10^−13 M. Plates were read immediately again by serially five times. Data were processed and analyzed following the method in the literature by using GraphPad Prism 8.0.

[3] = target: T3, NMU2 F224A (Homo sapiens, UniProt Q9GZQ4, F224A); test: IP accumulation assay, NMU2 mutant F224A; settings: IP accumulation
T3 construct: HA signal peptide (N); expressed in transfected cells; host or cells: HEK 293F, transient transfection, PTT5 vector
Method: (§3) NMU2 constructs of WT and mutants were constructed into PTT5 vector (Invitrogen), as mentioned above. HEK 293F cells were transiently transfected with WT or mutants with total of 2000 ng plasmid DNA using transfection reagent (PEI MAX 2000, Polysciences) and cultivated at 37 °C with 5% CO2. Cells were collected after 48-h transfection. IP accumulation was tested by IP-One Gq assay kit (Cisbio Bioassays, 62IPAPEJ) following the instruction manual. In general, cells were resuspended with 1× HBSS buffer containing 20 mM LiCl (stimulation buffer) and seeded into the white 384-well microplates (Proxi Plate^TM-384 Plus, PerkinElmer) with a density of 20,000 per well. Cells were preincubated with 10^−5 M R-PSOP (provided by Boehringer Ingelheim company, Germany) and gradient concentration from 10^−4 to 10^−11 M of NMU-25 or gradient concentration 10^−4 to 10^−11 M of NMU-25 alone in stimulation buffer at 37 °C for 90 min. The cryptate-labeled anti-IP1 monoclonal antibody and d2-labeled IP1 were diluted with lysis & detection buffer (1:20) and added to each well by 3 μl, respectively. The plates were incubated at room temperature for 60 minutes and then read in a Synerg^TM H1 microplate reader (BioTek) with excitation at 330 nm and emission at 620 and 665 nm. The IP1 production was calculated by a standard dose–response curve and analyzed by GraphPad Prism 8.0.

[4] = target: T4, NMU2 F305A (Homo sapiens, UniProt Q9GZQ4, F305A); test: TRUPATH assay, NMU2 mutant F305A
T4 construct: HA signal peptide (N); expressed in transfected cells; host or cells: HEK 293F
Method: as §2

[5] = target: T5, NMU2 E127A (Homo sapiens, UniProt Q9GZQ4, E127A); test: IP accumulation assay, NMU2 mutant E127A; settings: IP accumulation
T5 construct: HA signal peptide (N); expressed in transfected cells; host or cells: HEK 293F
Method: as §3

[6] = target: T5, NMU2 E127A; test: TRUPATH assay, NMU2 mutant E127A
Method: as §1

[7] = target: T6, NMU2 F126A (Homo sapiens, UniProt Q9GZQ4, F126A); test: TRUPATH assay, NMU2 mutant F126A
T6 construct: HA signal peptide (N); expressed in transfected cells; host or cells: HEK 293F
Method: as §2

[8] = target: T7, NMU2 F316A (Homo sapiens, UniProt Q9GZQ4, F316A); test: TRUPATH assay, NMU2 mutant F316A
T7 construct: HA signal peptide (N); expressed in transfected cells; host or cells: HEK 293F
Method: as §2

[9] = target: T8, NMU2 H285A (Homo sapiens, UniProt Q9GZQ4, H285A); test: IP accumulation assay, NMU2 mutant H285A; settings: IP accumulation
T8 construct: HA signal peptide (N); expressed in transfected cells; host or cells: HEK 293F, transient transfection, PTT5 vector
Method: as §3

[10] = target: T9, NMU2 F177C (Homo sapiens, UniProt Q9GZQ4, F177C); test: IP accumulation assay, NMU2 mutant F177C; settings: IP accumulation
T9 construct: HA signal peptide (N); expressed in transfected cells; host or cells: HEK 293F, transient transfection, PTT5 vector
Method: as §3

[11] = read-out: pEC50 mean±SEM (converted)
[12] = read-out: pEC50±SEM, NmU-25 alone (converted)

T6 sequence (Q9GZQ4 whole entry F126A): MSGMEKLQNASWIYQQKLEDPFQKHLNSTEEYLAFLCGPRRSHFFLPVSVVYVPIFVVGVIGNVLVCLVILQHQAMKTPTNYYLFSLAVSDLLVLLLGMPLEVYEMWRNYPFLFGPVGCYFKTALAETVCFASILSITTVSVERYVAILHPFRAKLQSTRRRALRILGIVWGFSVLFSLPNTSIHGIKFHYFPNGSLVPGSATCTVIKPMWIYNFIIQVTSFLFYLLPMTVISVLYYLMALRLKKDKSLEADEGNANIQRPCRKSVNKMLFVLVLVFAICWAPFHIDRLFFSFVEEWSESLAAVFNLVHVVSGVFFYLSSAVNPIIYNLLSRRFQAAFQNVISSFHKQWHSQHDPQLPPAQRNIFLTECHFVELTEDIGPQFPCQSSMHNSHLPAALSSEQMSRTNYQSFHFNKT
T4 sequence (Q9GZQ4 whole entry F305A): as the sequence (Q9GZQ4 whole entry F126A) above, with A126F, F305A counted along it
T7 sequence (Q9GZQ4 whole entry F316A): as the sequence (Q9GZQ4 whole entry F126A) above, with A126F, F316A counted along it
T2 sequence (Q9GZQ4 whole entry N109A): as the sequence (Q9GZQ4 whole entry F126A) above, with N109A, A126F counted along it
T5 sequence (Q9GZQ4 whole entry E127A): as the sequence (Q9GZQ4 whole entry F126A) above, with A126F, E127A counted along it
T8 sequence (Q9GZQ4 whole entry H285A): as the sequence (Q9GZQ4 whole entry F126A) above, with A126F, H285A counted along it
T3 sequence (Q9GZQ4 whole entry F224A): as the sequence (Q9GZQ4 whole entry F126A) above, with A126F, F224A counted along it
T9 sequence (Q9GZQ4 whole entry F177C): as the sequence (Q9GZQ4 whole entry F126A) above, with A126F, F177C counted along it
T1 sequence (Q9GZQ4 whole entry E102A): as the sequence (Q9GZQ4 whole entry F126A) above, with E102A, A126F counted along it

FRVDEEFQSPFASQSRGYFLFRPRN-NH2 [NmU-25] was tested. Which “potency (in words)” value [1] did it give?
Its value is “complete loss of potency”.

What about the “EC50 ratio EC50(mutant)/EC50(WT)” value [2] of the same substance?
The value was 9.

What about the “Span (window between Emax and minimal agonist response)” value (“Span” below) [2] of the same substance?
The value was 138±11 % of WT.

What about the “G protein activation (TRUPATH), dose-response point” value (from here on “G protein activation (TRUPATH)”) ([2]; Log [agonist] M -4) of the same substance?
The value was 126.259.

And the “G protein activation (TRUPATH)” value ([2]; Log [agonist] M -5)?
The value was 106.487 and 123.773 and 113.723.

And the “G protein activation (TRUPATH)” value ([2]; Log [agonist] M -6)?
The value was 98.1363 and 71.1117 and 54.8765.

What about the “ΔpEC50 (from WT)” value ([2]; individual experiments) of the same substance?
The value was -1.459 and -0.6318 and -0.9885.

And the EC50 ([2]; read-out: EC50)?
The EC50 was 298 nM.

And the EC50 [2, 11]?
Its EC50 is 295 nM.

And the EC50 ([3]; read-out: EC50, NmU-25 alone)?
The EC50 was 46 nM.

What about the EC50 [3, 12] of the same substance?
The EC50 was 45.7 nM.

And the “EC50 ratio EC50(mutant)/EC50(WT)” value [4]?
The value was 77.

What about the “Span” value [4] of the same substance?
The value was 95±11 % of WT.

What about the “G protein activation (TRUPATH)” value ([4]; Log [agonist] M -4) of the same substance?
The value was 46.0579 and 58.1697 and 76.8594 and 61.8818.

And the “ΔpEC50 (from WT)” value ([4]; individual experiments)?
The value was -2.165 and -2.457 and -1.8628 and -2.734.

And the Emax ([4]; peer review file)?
Its Emax is 83%.

And the potency reduction ([4]; peer review file)?
The potency reduction was 33 fold.

And the EC50 ([4]; read-out: EC50)?
Its EC50 is 2600 nM.

And the EC50 [4, 11]?
The EC50 was 2630 nM.

What about the EC50 ([5]; read-out: EC50, NmU-25 alone) of the same substance?
The EC50 was 2140 nM.

And the EC50 [5, 12]?
Its EC50 is 2140 nM.

What about the “G protein activation (TRUPATH)” value ([6]; Log [agonist] M -4) of the same substance?
The value was 45.81 and 24.8732.

What about the “potency (in words)” value ([6]; TRUPATH) of the same substance?
The value was “complete loss of potency”.

And the “EC50 ratio EC50(mutant)/EC50(WT)” value [7]?
The value was 18.

What about the “Span” value [7] of the same substance?
Its value is 27±10 % of WT.

What about the “G protein activation (TRUPATH)” value ([7]; Log [agonist] M -4) of the same substance?
Its value is 26.6728 and 20.7775.

And the “ΔpEC50 (from WT)” value ([7]; individual experiments)?
Its value is -2.148 and -1.125 and -1.6853.

And the EC50 ([7]; read-out: EC50)?
The EC50 was 625 nM.

And the EC50 [7, 11]?
Its EC50 is 631 nM.

What about the “EC50 ratio EC50(mutant)/EC50(WT)” value [8] of the same substance?
The value was 39.

What about the “G protein activation (TRUPATH)” value ([8]; Log [agonist] M -4) of the same substance?
The value was 89.6236 and 94.3509 and 81.0469 and 109.176.

What about the “G protein activation (TRUPATH)” value ([8]; Log [agonist] M -5) of the same substance?
The value was 58.7715 and 110.343 and 86.8329 and 108.262.

And the “ΔpEC50 (from WT)” value ([8]; individual experiments)?
The value was -1.816 and -2.03 and -0.9173 and -1.079.

And the EC50 ([8]; read-out: EC50)?
The EC50 was 1340 nM.

What about the EC50 [8, 11] of the same substance?
Its EC50 is 1350 nM.

And the EC50 ([9]; read-out: EC50, NmU-25 alone)?
Its EC50 is 214 nM.

What about the EC50 [9, 12] of the same substance?
Its EC50 is 214 nM.

What about the EC50 ([10]; read-out: EC50, NmU-25 alone) of the same substance?
The EC50 was 7 nM.

And the EC50 [10, 12]?
The EC50 was 7.08 nM.
